In PubChem BioAssay (NCI):
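Five concentrations, 48 hours, 96-well plates. Here, GI50 denotes the concentration required for 50% inhibition of growth. At the TGI there is no net growth.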

Columns and labels:
Assay in all cases: NCI tumour cell line growth inhibition, 48 h
786-0 renal = tested on: 786-0 renal
A498 renal = tested on: A498 renal
A549 NSCLC = tested on: A549 NSCLC
ACHN renal = tested on: ACHN renal
BT-549 breast = tested on: BT-549 breast
CAKI-1 renal = tested on: CAKI-1 renal
CCRF-CEM leukemia = tested on: CCRF-CEM leukemia
COLO 205 colon = tested on: COLO 205 colon
DU-145 prostate = tested on: DU-145 prostate
EKVX NSCLC = tested on: EKVX NSCLC
HCC-2998 colon = tested on: HCC-2998 colon
HCT-116 colon = tested on: HCT-116 colon
HCT-15 colon = tested on: HCT-15 colon
HL-60(TB) leukemia = tested on: HL-60(TB) leukemia
HOP-62 NSCLC = tested on: HOP-62 NSCLC
HOP-92 NSCLC = tested on: HOP-92 NSCLC
HS 578T breast = tested on: HS 578T breast
HT29 colon = tested on: HT29 colon
IGROV1 ovarian = tested on: IGROV1 ovarian
K-562 leukemia = tested on: K-562 leukemia
KM12 colon = tested on: KM12 colon
LOX IMVI melanoma = tested on: LOX IMVI melanoma
M14 melanoma = tested on: M14 melanoma
MALME-3M melanoma = tested on: MALME-3M melanoma
MCF7 breast = tested on: MCF7 breast
MDA-MB-231 breast = tested on: MDA-MB-231 breast
MDA-MB-435 = tested on: MDA-MB-435
MOLT-4 leukemia = tested on: MOLT-4 leukemia
NCI-H226 lung = tested on: NCI-H226 lung
NCI-H23 lung = tested on: NCI-H23 lung
NCI-H460 lung = tested on: NCI-H460 lung
NCI-H522 lung = tested on: NCI-H522 lung
NCI/ADR-RES ovarian = tested on: NCI/ADR-RES ovarian
OVCAR-3 ovarian = tested on: OVCAR-3 ovarian
OVCAR-4 ovarian = tested on: OVCAR-4 ovarian
OVCAR-5 ovarian = tested on: OVCAR-5 ovarian
OVCAR-8 ovarian = tested on: OVCAR-8 ovarian
PC-3 prostate = tested on: PC-3 prostate
RPMI-8226 leukemia = tested on: RPMI-8226 leukemia
RXF 393 renal = tested on: RXF 393 renal
SF-268 CNS = tested on: SF-268 CNS
SF-295 CNS = tested on: SF-295 CNS
SF-539 CNS = tested on: SF-539 CNS
SK-MEL-2 melanoma = tested on: SK-MEL-2 melanoma
SK-MEL-28 melanoma = tested on: SK-MEL-28 melanoma
SK-MEL-5 melanoma = tested on: SK-MEL-5 melanoma
SN12C renal = tested on: SN12C renal
SNB-19 CNS = tested on: SNB-19 CNS
SNB-75 CNS = tested on: SNB-75 CNS
SR leukemia = tested on: SR leukemia
SW-620 colon = tested on: SW-620 colon
T-47D breast = tested on: T-47D breast
TK-10 renal = tested on: TK-10 renal
U251 CNS = tested on: U251 CNS
UACC-257 melanoma = tested on: UACC-257 melanoma
UACC-62 melanoma = tested on: UACC-62 melanoma
UO-31 renal = tested on: UO-31 renal

N#Cc1cccc(NC(=O)c2cc(-c3ccc(F)cc3F)ccc2O)c1 showed a GI50 (786-0 renal) of 2.69 µM, a TGI (786-0 renal) of 19.4 µM and a GI50 (A498 renal) of 1.27 µM. It also gave a TGI (A498 renal) of 4.3 µM, a GI50 (A549 NSCLC) of 3.09 µM and a TGI (A549 NSCLC) of 28.4 µM. It also gave a GI50 (ACHN renal) of 2.56 µM, a TGI (ACHN renal) of 7.89 µM and a GI50 (BT-549 breast) of 2.31 µM. It also gave a TGI (BT-549 breast) of 7.06 µM, a GI50 (CAKI-1 renal) of 2.31 µM and a TGI (CAKI-1 renal) of 10.1 µM. The GI50 (CCRF-CEM leukemia) was 3.07 µM, the TGI (CCRF-CEM leukemia) was 47.7 µM and the GI50 (COLO 205 colon) was 10.9 µM. The TGI (COLO 205 colon) was 28.2 µM, the GI50 (DU-145 prostate) was 3.26 µM and the TGI (DU-145 prostate) was greater than 100 µM. It also gave a GI50 (EKVX NSCLC) of 2.65 µM, a TGI (EKVX NSCLC) of 10.9 µM and a GI50 (HCC-2998 colon) of 2.97 µM. It also gave a TGI (HCC-2998 colon) of 10.1 µM, a GI50 (HCT-116 colon) of 2.57 µM and a TGI (HCT-116 colon) of 10.6 µM. The GI50 (HCT-15 colon) was 2.74 µM, the TGI (HCT-15 colon) was 11.4 µM and the GI50 (HL-60(TB) leukemia) was 2.17 µM. For the same compound, the TGI (HL-60(TB) leukemia) was 5.6 µM, the GI50 (HOP-62 NSCLC) was 2.97 µM and the TGI (HOP-62 NSCLC) was 11 µM. The GI50 (HOP-92 NSCLC) was 0.294 µM, the TGI (HOP-92 NSCLC) was 2.43 µM and the GI50 (HS 578T breast) was 2.31 µM. For the same compound, the TGI (HS 578T breast) was 8.91 µM, the GI50 (HT29 colon) was 4.73 µM and the TGI (HT29 colon) was 37.3 µM. It also gave a GI50 (IGROV1 ovarian) of 2.98 µM, a TGI (IGROV1 ovarian) of 68.6 µM and a GI50 (K-562 leukemia) of 1.98 µM. The TGI (K-562 leukemia) was greater than 100 µM, the GI50 (KM12 colon) was 3 µM and the TGI (KM12 colon) was 10.8 µM. For the same compound, the GI50 (LOX IMVI melanoma) was 2.45 µM, the TGI (LOX IMVI melanoma) was 6.58 µM and the GI50 (M14 melanoma) was 1.94 µM. It also gave a TGI (M14 melanoma) of 7.84 µM, a GI50 (MALME-3M melanoma) of 1.44 µM and a TGI (MALME-3M melanoma) of 5.48 µM. It also gave a GI50 (MCF7 breast) of 2.15 µM, a TGI (MCF7 breast) of 9.72 µM and a GI50 (MDA-MB-231 breast) of 2.01 µM. It also gave a TGI (MDA-MB-231 breast) of 5.23 µM, a GI50 (MDA-MB-435) of 2.38 µM and a TGI (MDA-MB-435) of 9.32 µM. For the same compound, the GI50 (MOLT-4 leukemia) was 2.46 µM, the TGI (MOLT-4 leukemia) was 6.65 µM and the GI50 (NCI-H226 lung) was 1.67 µM. The TGI (NCI-H226 lung) was 6.43 µM, the GI50 (NCI-H23 lung) was 1.43 µM and the TGI (NCI-H23 lung) was 4.35 µM. For the same compound, the GI50 (NCI-H460 lung) was 2.75 µM, the TGI (NCI-H460 lung) was 11.2 µM and the GI50 (NCI-H522 lung) was 1.64 µM. It also gave a TGI (NCI-H522 lung) of 12.1 µM, a GI50 (NCI/ADR-RES ovarian) of 2.19 µM and a TGI (NCI/ADR-RES ovarian) of 6.84 µM. The GI50 (OVCAR-3 ovarian) was 2.17 µM, the TGI (OVCAR-3 ovarian) was 11.7 µM and the GI50 (OVCAR-4 ovarian) was 2.11 µM. It also gave a TGI (OVCAR-4 ovarian) of 23 µM, a GI50 (OVCAR-5 ovarian) of 3.2 µM and a TGI (OVCAR-5 ovarian) of 25.5 µM. The GI50 (OVCAR-8 ovarian) was 2.88 µM, the TGI (OVCAR-8 ovarian) was greater than 100 µM and the GI50 (PC-3 prostate) was 2.88 µM. The TGI (PC-3 prostate) was 9.88 µM, the GI50 (RPMI-8226 leukemia) was 0.675 µM and the TGI (RPMI-8226 leukemia) was 3.16 µM. The GI50 (RXF 393 renal) was 2.69 µM, the TGI (RXF 393 renal) was 7.63 µM and the GI50 (SF-268 CNS) was 3.11 µM. It also gave a TGI (SF-268 CNS) greater than 100 µM, a GI50 (SF-295 CNS) of 2.16 µM and a TGI (SF-295 CNS) of 5.19 µM. The GI50 (SF-539 CNS) was 3.07 µM, the TGI (SF-539 CNS) was 10.5 µM and the GI50 (SK-MEL-2 melanoma) was 1.76 µM. The TGI (SK-MEL-2 melanoma) was 5.49 µM, the GI50 (SK-MEL-28 melanoma) was 2.07 µM and the TGI (SK-MEL-28 melanoma) was 14.8 µM. It also gave a GI50 (SK-MEL-5 melanoma) of 0.728 µM, a TGI (SK-MEL-5 melanoma) of 2.15 µM and a GI50 (SN12C renal) of 2.1 µM. The TGI (SN12C renal) was 8.32 µM, the GI50 (SNB-19 CNS) was 2.63 µM and the TGI (SNB-19 CNS) was 18.4 µM. For the same compound, the GI50 (SNB-75 CNS) was 2.08 µM, the TGI (SNB-75 CNS) was 8.05 µM and the GI50 (SR leukemia) was 3.72 µM. The TGI (SR leukemia) was 89.2 µM, the GI50 (SW-620 colon) was 3.02 µM and the TGI (SW-620 colon) was 22.3 µM. The GI50 (T-47D breast) was 1.1 µM, the TGI (T-47D breast) was 6.83 µM and the GI50 (TK-10 renal) was 3.24 µM. For the same compound, the TGI (TK-10 renal) was 20.1 µM, the GI50 (U251 CNS) was 2.79 µM and the TGI (U251 CNS) was greater than 100 µM. For the same compound, the GI50 (UACC-257 melanoma) was 1.53 µM, the TGI (UACC-257 melanoma) was 5.84 µM and the GI50 (UACC-62 melanoma) was 0.87 µM. It also gave a TGI (UACC-62 melanoma) of 4.42 µM, a GI50 (UO-31 renal) of 2.26 µM and a TGI (UO-31 renal) of 6.99 µM.
